Measured values reported in patent publication US9862684B2, “Modulation of K2P channels” (The Regents of the University of California, priority 2013, dated 2018).
Where two headings read alike, the source gives them in different places. Values belong to the compound of their own block, whether it stands above or below them.

Tests used:
[1] = molecular target: T1, TREK-1 (Mus musculus, UniProt P97438); experiment: Antagonist compound examples, modulation of TREK-1 (current inhibition), Table 5; assay type: cell-based, Murine
T1 construct: expressed in transfected cells
T1 sequence (P97438 1-411 isoform P97438-2): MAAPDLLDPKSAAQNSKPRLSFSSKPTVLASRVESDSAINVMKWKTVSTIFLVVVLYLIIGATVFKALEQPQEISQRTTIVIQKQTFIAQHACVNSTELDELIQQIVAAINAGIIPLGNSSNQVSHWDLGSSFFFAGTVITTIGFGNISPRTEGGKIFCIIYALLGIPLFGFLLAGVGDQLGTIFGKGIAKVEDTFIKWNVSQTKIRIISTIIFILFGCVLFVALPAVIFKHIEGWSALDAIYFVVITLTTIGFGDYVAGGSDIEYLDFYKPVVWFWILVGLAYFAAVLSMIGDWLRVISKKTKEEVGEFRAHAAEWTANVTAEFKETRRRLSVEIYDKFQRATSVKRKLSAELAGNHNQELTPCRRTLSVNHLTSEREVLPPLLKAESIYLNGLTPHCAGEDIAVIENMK
Experimental: (§1) Two-electrode voltage clamp recordings were performed from defolliculated stage V-VI Xenopus oocytes 24-48 hours after injection with 0.015-6.0 ng cRNA, using microelectrodes (0.3-3.0 MΩ) filled with 3M KCl. Data was acquired using the GeneClamp 500B (MDS Analytical Technologies) amplifier controlled by the pClamp software (Molecular Devices), and digitized at 1 kHz using Digidata 1332A (MDS Analytical Technologies). Recording solutions (mM): 2K (96 NaCl, 2 KCl, 1.8 CaCl2, 2 MgCl2), 90K (90 KCl, 8 NaCl, 1.8 CaCl2, 2 MgCl2), were buffered 5 mM HEPES pH 7.4. For K2P recordings, currents we elicited by a 1 second long ramp from −150 to +50 mV from a holding potential of −80 mV (2K), or −100 to +50 mV from a holding potential of 0 mV (90K). For KCNQ2 recordings, currents were elicited by a step protocol from −120 to 60 mV, in 20 mV increments, from a holding potential of −80 mV. Patch-clamp recordings from HEK-293T cells were performed using microelectrodes (2-3 MΩ) filled with 1M KCl. Data was acquired using the Axopatch 200B amplifier controlled by pClamp software, and digitized at 1 kHz using Digidata 1332A. Recording solutions (mM): intracellular (145 KCl, 5 EGTA, 3 MgCl2,) extracellular (150 NaCl, 5 KCl, 3 MgCl2, 1 CaCl2) were buffered with 5 mM HEPES pH 7.2 and 7.4, respectively. Currents were elicited by a 1 second long ramp from −150 to +50 mV from a holding potential of −80 mV. Data were fitted with a modified Hill's equation: I=Imin+(Imax−Imin)/(1+10^((Log EC50−Log [C])*H)), where Imax and Imin are maximal and minimal current values, respectively, EC50 is a half-maximal effective concentration of the compound, and H is the Hill coefficient.

[2] = molecular target: T2, K2P2.1 (TREK-1) (Mus musculus, UniProt P97438); experiment: Two-electrode voltage clamp of Xenopus oocytes expressing K2P2.1 (TREK-1); assay type: cell-based, Murine; conditions: two-electrode voltage clamp, Xenopus oocytes
T2 construct: expressed in transfected cells; host or cells: Xenopus oocytes (cRNA injection, pGEMHE/pMO)
T2 sequence (P97438 1-411 isoform P97438-2): T1 sequence (P97438 1-411 isoform P97438-2)
Experimental: (§2) Two-electrode voltage clamp recordings were performed from defolliculated stage V-VI Xenopus oocytes 24-48 hours after injection with 0.015-6.0 ng cRNA, using microelectrodes (0.3-3.0 MΩ) filled with 3M KCl. […] Recording solutions (mM): 2K (96 NaCl, 2 KCl, 1.8 CaCl2, 2 MgCl2), 90K (90 KCl, 8 NaCl, 1.8 CaCl2, 2 MgCl2), were buffered 5 mM HEPES pH 7.4. For K2P recordings, currents we elicited by a 1 second long ramp from −150 to +50 mV from a holding potential of −80 mV (2K), or −100 to +50 mV from a holding potential of 0 mV (90K). For KCNQ2 recordings, currents were elicited by a step protocol from −120 to 60 mV, in 20 mV increments, from a holding potential of −80 mV. […] Currents were elicited by a 1 second long ramp from −150 to +50 mV from a holding potential of −80 mV.

[3] = molecular target: T3, Kv7.2 (KCNQ2) (Homo sapiens, UniProt O43526); experiment: Two-electrode voltage clamp, Xenopus oocytes expressing Kv7.2 (KCNQ2); assay type: cell-based
T3 construct: expressed in transfected cells; host or cells: Xenopus oocytes
Experimental: FIG. 12 Exemplar I-V curves showing the effect of 100 μM ML67-33 Kv7.2 (KCNQ2) measured by two-electrode voltage clamp in Xenopus oocytes in 2 mM [K^+]o pH 7.4. Currents were elicited by a step protocol from −120 to 60 mV, in 20 mV increments, from a holding potential of −80 mV.
as §1

[4] = molecular target: T1, TREK-1; experiment: Modulation of TREK-1 by select compounds (agonist activity), Table 3; assay type: cell-based, Murine; conditions: agonist activity on TREK-1
Experimental: as §2

[5] = molecular target: T4, K2P10.1 (TREK-2) (Mus musculus, UniProt Q8BUW1); experiment: Two-electrode voltage clamp, Xenopus oocytes expressing K2P10.1 (TREK-2); assay type: cell-based, Murine
T4 construct: expressed in transfected cells; host or cells: Xenopus oocytes
T4 sequence (Q8BUW1 1-535): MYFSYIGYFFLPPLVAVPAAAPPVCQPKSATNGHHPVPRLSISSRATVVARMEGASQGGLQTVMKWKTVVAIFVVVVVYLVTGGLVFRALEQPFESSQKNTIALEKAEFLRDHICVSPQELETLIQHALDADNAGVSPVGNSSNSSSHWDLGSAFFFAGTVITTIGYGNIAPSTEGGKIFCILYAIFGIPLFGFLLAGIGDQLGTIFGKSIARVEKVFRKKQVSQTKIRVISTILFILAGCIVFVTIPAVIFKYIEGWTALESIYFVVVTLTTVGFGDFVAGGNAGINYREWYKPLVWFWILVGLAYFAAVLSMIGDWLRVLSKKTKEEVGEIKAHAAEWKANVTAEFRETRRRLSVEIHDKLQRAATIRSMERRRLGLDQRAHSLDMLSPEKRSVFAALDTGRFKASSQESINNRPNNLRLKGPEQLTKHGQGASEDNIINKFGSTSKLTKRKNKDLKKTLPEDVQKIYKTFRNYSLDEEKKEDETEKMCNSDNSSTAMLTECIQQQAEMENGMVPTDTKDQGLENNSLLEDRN
Experimental: (§3) FIG. 7 ML67-33 is a selective activator of heat- and mechanosensitive K2P channels. a-f, Exemplar I-V curves showing the effect of ML67-33 on a, K2P10.1 (TREK-2), b, K2P4.1 (TRAAK), c, K2P3.1 (TASK-1), d, K2P9.1 (TASK-3), e, K2P5.1 (TASK-2), and f, K2P18.1 (TRESK) measured in Xenopus oocytes in 2 mM [K^+]o pH 7.4. Currents were elicited by a voltage ramp from −150 to 50 mV, from a holding potential of −80 mV. g, Quantification of the effect of ML67-33 on the indicated channels. Data (mean±s.e., n≧6, N≧2) was normalized to basal channel activity and fitted to the Hill equation. […] Error bars indicate s.e., n≧6, N≧2.
(§4) Murine K2P channels were cloned into pGEMHE/pMO {Bagriantsev, 2011}, IRES-GFP (Invitrogen), or pYES2-MET25 (high copy 2μ, URA3) {Minor, 1999} for expression in oocytes, HEK-293T cells, and yeast, respectively, using standard molecular biology procedures, and verified by DNA sequencing.
as §1
(§5) There are six K2P subgroups {Noel, 2011} (FIG. 11). […]

[6] = molecular target: T5, K2P3.1 (TASK-1) (Mus musculus, UniProt O35111); experiment: Two-electrode voltage clamp, Xenopus oocytes expressing K2P3.1 (TASK-1); assay type: cell-based, Murine
T5 construct: expressed in transfected cells; host or cells: Xenopus oocytes
T5 sequence (O35111 whole entry): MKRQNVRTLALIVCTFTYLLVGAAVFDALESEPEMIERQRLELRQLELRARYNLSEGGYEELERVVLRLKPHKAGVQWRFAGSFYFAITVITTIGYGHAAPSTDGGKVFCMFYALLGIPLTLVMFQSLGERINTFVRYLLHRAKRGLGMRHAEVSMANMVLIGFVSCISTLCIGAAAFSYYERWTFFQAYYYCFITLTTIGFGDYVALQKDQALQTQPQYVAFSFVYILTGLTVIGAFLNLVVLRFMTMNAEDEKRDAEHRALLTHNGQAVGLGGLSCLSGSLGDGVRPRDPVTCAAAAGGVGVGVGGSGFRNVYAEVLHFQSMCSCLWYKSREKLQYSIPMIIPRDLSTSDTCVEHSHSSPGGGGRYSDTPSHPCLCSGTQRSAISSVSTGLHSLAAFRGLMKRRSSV
Experimental: as §3, §4, §1, §5

[7] = Solubility (remarks); assay type: physicochemical
[8] = molecular target: T6, K2P2.1 (TREK-1) (Homo sapiens, UniProt O95069); conditions: cited from earlier work
T6 sequence (O95069 1-426): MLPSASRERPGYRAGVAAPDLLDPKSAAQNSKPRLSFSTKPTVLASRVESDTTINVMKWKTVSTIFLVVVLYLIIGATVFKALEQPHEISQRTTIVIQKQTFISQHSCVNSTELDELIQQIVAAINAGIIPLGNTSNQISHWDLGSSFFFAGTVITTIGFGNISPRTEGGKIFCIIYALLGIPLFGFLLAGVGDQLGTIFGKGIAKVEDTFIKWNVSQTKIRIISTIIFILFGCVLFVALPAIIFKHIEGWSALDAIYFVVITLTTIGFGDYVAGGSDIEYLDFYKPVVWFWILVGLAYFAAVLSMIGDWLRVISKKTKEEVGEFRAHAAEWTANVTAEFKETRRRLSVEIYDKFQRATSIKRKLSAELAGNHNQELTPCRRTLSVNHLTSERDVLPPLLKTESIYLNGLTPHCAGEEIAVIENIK

[9] = 25 μM, 0 mV, read-out: inhibition at 25 μM at 0 mV

SMILES: c1ccc(CCNc2ncnc3c2cnn3-c2ccccc2)cc1 [ML45-1, 1-phenyl-N-(2-phenylethyl)-1H-pyrazolo[3,4-d]pyrimidin-4-amine]
- inhibition at 25 µM [1, 9]: 22.5%

SMILES: Cc1ccc(-n2ncc3c(NCCc4ccccc4)ncnc32)cc1 [ML45-2, 1-(4-methylphenyl)-N-(2-phenylethyl)-1H-pyrazolo[3,4-d]pyrimidin-4-amine]
- inhibition at 25 µM [1, 9]: 25.2%

SMILES: Cc1ccc(-n2ncc3c(NCCc4ccccc4)ncnc32)cc1C [ML45-3, 1-(3,4-dimethylphenyl)-N-(2-phenylethyl)-1H-pyrazolo[3,4-d]pyrimidin-4-amine]
- inhibition at 25 µM [1, 9]: 31.9%

SMILES: Clc1ccc(-n2ncc3c(NCCc4ccccc4)ncnc32)cc1 [ML45-4, 1-(4-chlorophenyl)-N-(2-phenylethyl)-1H-pyrazolo[3,4-d]pyrimidin-4-amine]
- inhibition at 25 µM [1, 9]: 20.7%

SMILES: O=C(O)CCn1c2ccc(Cl)cc2c2cc(Cl)ccc21 [ML67, 3-(3,6-dichlorocarbazol-9-yl)propanoic acid]
- effect on Kv7.2 (KCNQ2) (in words) ([3]; ML67-33 at 100 μM, ML67 concentration not stated): no effect
- Emax (fold) at 500 μM ([3]; at 500 μM): 1.8 ± 0.0 at 500 μM fold
- EC50 [4]: 213 µM
- effect on K2P2.1 (TREK-1) function / activity (in words) [2]: activated the channel
- EC50 ([5]; Xenopus oocytes, 2 mM [K+]o pH 7.4): > 250 µM
- Emax (fold) at 500 μM ([5]; at 500 μM): 10.1 ± 1.1 at 500 μM fold
- functional effect / activation (in words) ([6]; ML67-33 applied at 100 μM, ML67 concentration not stated): not
- Emax (fold) at 500 μM ([6]; at 500 μM): 1.2 ± 0.0 at 500 μM fold

SMILES: O=C(CCn1c2ccc(Cl)cc2c2cc(Cl)ccc21)NO [ML67-19, 3-(3,6-dichlorocarbazol-9-yl)-N-hydroxy-propanamide]
- solubility (in words) [7]: insoluble

SMILES: CCCCC/C=C\C/C=C\C/C=C\C/C=C\CCCC(=O)O [arachidonic acid]
- activation of K2P2.1 (TREK-1) ([8]; at 10-20 μM): 3-12 fold

SMILES: ClC(Cl)Cl [chloroform]
- activation of K2P2.1 (TREK-1) ([8]; at 1.6 mM): 5.5 fold

Other lines, results leading:

- inhibition at 25 µM ([1]; read-out: current inhibition at 25 μM): ~30%
- effect on K2P2.1 (TREK-1) function / activity (in words) [2]: inhibitors
SMILES: Cc1cccc(-n2ncc3c(NCCc4ccccc4)ncnc32)c1 [ML45, 1-(3-methylpyhenyl)-N-(2-phenylethyl)-1H-pyrazolo[3,4-d]pyrimidin-4-amine]

- inhibition at 25 µM [1, 9]: 2.7%
SMILES: Cc1cccc(-n2ncc3c(NCCc4ccc(S(N)(=O)=O)cc4)ncnc32)c1 [ML45-5, 4-(2-{[1-(3-methylphenyl)-1H-pyrazolo[3,4-d]pyrimidin-4-yl]amino}ethyl)benzene-1-sulfonamide]

- solubility (in words) [7]: insoluble
SMILES: O=C(O)/C=C/n1c2ccc(Cl)cc2c2cc(Cl)ccc21 [ML67-16, (E)-3-(3,6-dichlorocarbazol-9-yl)prop-2-enoic acid]
